Data set [1] is described as follows: Pilot trial: adverse events and biological parameters (hemoglobin, plasma iron, ferritin). The class given is in vivo, human. The source says: Ten adolescents (four males, six females aged 14 to 23 yrs) with a diagnosis of Friedreich ataxia, confirmed by detection of a trinucleotide-repeat expansion in the first intron of the frataxin gene, were studied. Patients received deferiprone (Ferriprox™, Apotex Inc., Toronto, Canada) orally, in two doses for 1-5 months. Three patients were included, sequentially, for a minimum period of two months at each dose. Patient enrollment was staggered by two-weeks to enable monitoring of response. In the absence of toxicity, and with evidence of efficacy in any of the first 3 patients, a second group of 3 patients would be included at the same dose for a total duration of 6 months. If there was an absence of both efficacy and toxicity, the second group of three patients would be administered a higher dose. If toxicity developed, the current dose would be suspended and the trial resumed with the next group of patients at a lower dose. The patients were on idebenone (10 mg/kg/day, in three doses) for at least two years prior to inclusion and were kept on the drug at the same dose for the duration of the trial. MRI examinations were done at inclusion and at 1, 2, 4 and 6 months. The protocol was promoted by Assistance Publique-Hopitaux de Paris and approved by the local ethical committee and registered at the National Health Authority (AFSSAPS) and at the International Protocol Registration System (www.clinicaltrials.gov). A written informed consent was obtained from patients and parents.
The International Cooperative Ataxia Rating Score (ICARS) was used to assess the symptoms of ataxia before and after 1-5 months (Cano et al. International cooperative ataxia rating scale (ICARS): Appropriate for studies of Friedreich's ataxia? Mov Disord 2005; 20:1585-91). […] Patients were monitored for neutropenia, agranulocytosis, musculoskeletal pains and zinc deficiency and had weekly blood counts, plasma iron, serum ferritin and transferrin concentration measurements, as well as assessments of renal and liver function.

Data set [2] has as its system intracellular iron pools of macrophages, hepatocytes, and cardiomyocyte cell lines. The note with it: living cells, fluorescence probes; cited from earlier work.

In the case of `Cc1c(O)c(=O)ccn1C` [Deferiprone, 3-hydroxy-1,2-dimethylpyridin-4-one], the signs of toxicity entry in data set [1] (20 mg/kg/day oral) is given as “without signs of toxicity, other than minor adverse effects, such as nausea”. In addition, in data set [1] (80 mg/kg/day oral, first patient (P1), terminated at day 17, slowly reversed on drug termination), the adverse events result was “fatigue, headache, nausea, dizziness, then floppiness, poor head control, abnormal eye movements and fluctuating consciousness”. The “impact on the levels of hyposideremic anemia and hypoferritinemia” value in data set [1] (regardless of the dose (20 and 30 mg/kg/day)) was “negligible impact”. Further, in data set [2], the “access to intracellular iron pools / chelation” value was “readily enter most cells and efficiently reach the major intracellular sites of iron accumulation”.

Source of the values: patent US20090023784A1, “USE OF DEFERIPRONE AND METHODS TO TREAT AND/OR PREVENT FRIEDREICH ATAXIA RESULTING FROM INTRACELLULAR MISHANDLING OF IRON” (priority 2006, published 2009).
